{"source": "patent US6355799B1", "about": "“Substituted benzene compounds, process for their preparation, and herbicidal and defoliant compositions containing them” (ISK Americas Incorporated, priority 1997, dated 2002)", "format_in_all_cases": "in vivo", "key": {"[1]": {"test_system": "redroot pigweed (Amaranthus retroflexus, AMARE)", "assay": "Pre-emerge test, greenhouse herbicide activity screening", "conditions": "rating scale 0-100, 14 days after application", "method_in_brief": "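Herbicidal damage is scored 0 (none) to 100 (complete plant death) two weeks after a simulated field spray. Rates span 15–1000 g ai/ha, delivered in acetone at 187 l/ha. For post-emergence treatments, plants have 2–3 leaves and the spray carries 0.25% v/v non-ionic surfactant.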"}, "[2]": {"test_system": "barnyardgrass (Echinochloa crus-galli, ECHCG)", "assay": "Pre-emerge test, greenhouse herbicide activity screening", "conditions": "rating scale 0-100, 14 days after application", "method_in_brief": "(§1)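 Applied at 15–1000 g ai/ha from acetone in 187 l/ha spray volume. Post-emergence applications included 0.25% v/v non-ionic surfactant and reached plants sown 8–21 days before. Pre-emergence applications were incorporated by surface watering. Efficacy or crop damage was rated on a 0–100 scale after 14 days.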"}, "[3]": {"test_system": "green foxtail (Setaria viridis, SETVI)", "assay": "Pre-emerge test, greenhouse herbicide activity screening", "conditions": "rating scale 0-100, 14 days after application", "method_in_brief": "as §1"}, "[4]": {"test_system": "ivyleaf morningglory (Ipomoea hederacea, IPOHE)", "assay": "Pre-emerge test, greenhouse herbicide activity screening", "conditions": "rating scale 0-100, 14 days after application", "method_in_brief": "as §1"}, "[5]": {"test_system": "johnsongrass (Sorghum halepense, SORHA)", "assay": "Pre-emerge test, greenhouse herbicide activity screening", "conditions": "rating scale 0-100, 14 days after application", "method_in_brief": "as §1"}, "[6]": {"test_system": "lambsquarters (Chenopodium album, CHEAL)", "assay": "Pre-emerge test, greenhouse herbicide activity screening", "conditions": "rating scale 0-100, 14 days after application", "method_in_brief": "as §1"}, "[7]": {"test_system": "large crabgrass (Digitaria sanguinalis, DIGSA)", "assay": "Pre-emerge test, greenhouse herbicide activity screening", "conditions": "rating scale 0-100, 14 days after application", "method_in_brief": "as §1"}, "[8]": {"test_system": "sicklepod (Cassia obtusifolia, CASOB)", "assay": "Pre-emerge test, greenhouse herbicide activity screening", "conditions": "rating scale 0-100, 14 days after application", "method_in_brief": "as §1"}, "[9]": {"test_system": "velvetleaf (Abutilon theophrasti, ABUTH)", "assay": "Pre-emerge test, greenhouse herbicide activity screening", "conditions": "rating scale 0-100, 14 days after application", "method_in_brief": "as §1"}, "[10]": {"test_system": "field corn (Zea mays L., var. Dekalb 535, CORN)", "assay": "Pre-emerge test, crop safety", "conditions": "rating scale 0-100, 14 days after application", "method_in_brief": "as §1"}, "[11]": {"test_system": "upland rice (Oryza sp., var. Tebonnet, RICE)", "assay": "Pre-emerge test, crop safety", "conditions": "rating scale 0-100, 14 days after application", "method_in_brief": "as §1"}, "[12]": {"test_system": "barnyardgrass (Echinochloa crus-galli, ECHCG)", "assay": "Post-emerge test, greenhouse herbicide activity screening", "conditions": "rating scale 0-100 (0 no damage, 100 complete death), 14 days after application", "method_in_brief": "(§2)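 Visual ratings on a 0-100 scale (0 no damage, 100 all plants dead) were taken at 14 days after treatment. Rates of 15-1000 g ai/ha in acetone, 187 l/ha, were sprayed onto soil one day after planting (pre-emerge) or onto 2-3 leaf plants with 0.25% v/v surfactant (post-emerge).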"}, "[13]": {"test_system": "common ragweed (Ambrosia artemisizfolia L., AMBEL)", "assay": "Post-emerge test, greenhouse herbicide activity screening", "conditions": "rating scale 0-100 (0 no damage, 100 complete death), 14 days after application", "method_in_brief": "as §2"}, "[14]": {"test_system": "green foxtail (Setaria viridis, SETVI)", "assay": "Post-emerge test, greenhouse herbicide activity screening", "conditions": "rating scale 0-100 (0 no damage, 100 complete death), 14 days after application", "method_in_brief": "as §2"}, "[15]": {"test_system": "ivyleaf morningglory (Ipomoea hederacea, IPOHE)", "assay": "Post-emerge test, greenhouse herbicide activity screening", "conditions": "rating scale 0-100 (0 no damage, 100 complete death), 14 days after application", "method_in_brief": "as §2"}, "[16]": {"test_system": "johnsongrass (Sorghum halepense, SORHA)", "assay": "Post-emerge test, greenhouse herbicide activity screening", "conditions": "rating scale 0-100 (0 no damage, 100 complete death), 14 days after application", "method_in_brief": "as §2"}, "[17]": {"test_system": "lambsquarters (Chenopodium album, CHEAL)", "assay": "Post-emerge test, greenhouse herbicide activity screening", "conditions": "rating scale 0-100 (0 no damage, 100 complete death), 14 days after application", "method_in_brief": "as §2"}, "[18]": {"test_system": "large crabgrass (Digitaria sanguinalis, DIGSA)", "assay": "Post-emerge test, greenhouse herbicide activity screening", "conditions": "rating scale 0-100 (0 no damage, 100 complete death), 14 days after application", "method_in_brief": "as §2"}, "[19]": {"test_system": "redroot pigweed (Amaranthus retroflexus, AMARE)", "assay": "Post-emerge test, greenhouse herbicide activity screening", "conditions": "rating scale 0-100 (0 no damage, 100 complete death), 14 days after application", "method_in_brief": "as §2"}, "[20]": {"test_system": "sicklepod (Cassia obtusifolia, CASOB)", "assay": "Post-emerge test, greenhouse herbicide activity screening", "conditions": "rating scale 0-100 (0 no damage, 100 complete death), 14 days after application", "method_in_brief": "as §2"}, "[21]": {"test_system": "velvetleaf (Abutilon theophrasti, ABUTH)", "assay": "Post-emerge test, greenhouse herbicide activity screening", "conditions": "rating scale 0-100 (0 no damage, 100 complete death), 14 days after application", "method_in_brief": "as §2"}, "[22]": {"test_system": "field corn (Zea mays L., var. Dekalb 535, CORN)", "assay": "Post-emerge test, crop safety", "conditions": "rating scale 0-100 (0 no damage, 100 complete death), 14 days after application", "method_in_brief": "as §1"}, "[23]": {"test_system": "upland rice (Oryza sp., var. Tebonnet, RICE)", "assay": "Post-emerge test, crop safety", "conditions": "rating scale 0-100 (0 no damage, 100 complete death), 14 days after application", "method_in_brief": "as §1"}}, "data": [{"smiles": "CCOC(=O)C(Br)Cc1c(OC)c(Cl)cc(F)c1-n1c(=O)cc(C(F)(F)F)n(C)c1=O", "note": "(single isomer, unassigned) [14-32]", "values": [{"measurement": "Pre-emerge herbicidal activity, phytotoxicity rating AMARE", "setting": "[1]; 63 g ai/ha", "result": 100}, {"measurement": "Pre-emerge herbicidal activity, phytotoxicity rating AMARE", "setting": "[1]; 250 g ai/ha", "result": 100}, {"measurement": "Pre-emerge herbicidal activity, phytotoxicity rating ECHCG", "setting": "[2]; 63 g ai/ha", "result": 0}, {"measurement": "Pre-emerge herbicidal activity, phytotoxicity rating ECHCG", "setting": "[2]; 250 g ai/ha", "result": 30}, {"measurement": "Pre-emerge herbicidal activity, phytotoxicity rating SETVI", "setting": "[3]; 63 g ai/ha", "result": 0}, {"measurement": "Pre-emerge herbicidal activity, phytotoxicity rating SETVI", "setting": "[3]; 250 g ai/ha", "result": 40}, {"measurement": "Pre-emerge herbicidal activity, phytotoxicity rating IPOHE", "setting": "[4]; 63 g ai/ha", "result": 0}, {"measurement": "Pre-emerge herbicidal activity, phytotoxicity rating IPOHE", "setting": "[4]; 250 g ai/ha", "result": 0}, {"measurement": "Pre-emerge herbicidal activity, phytotoxicity rating SORHA", "setting": "[5]; 63 g ai/ha", "result": 0}, {"measurement": "Pre-emerge herbicidal activity, phytotoxicity rating SORHA", "setting": "[5]; 250 g ai/ha", "result": 20}, {"measurement": "Pre-emerge herbicidal activity, phytotoxicity rating CHEAL", "setting": "[6]; 63 g ai/ha", "result": 80}, {"measurement": "Pre-emerge herbicidal activity, phytotoxicity rating CHEAL", "setting": "[6]; 250 g ai/ha", "result": 100}, {"measurement": "Pre-emerge herbicidal activity, phytotoxicity rating DIGSA", "setting": "[7]; 63 g ai/ha", "result": 20}, {"measurement": "Pre-emerge herbicidal activity, phytotoxicity rating DIGSA", "setting": "[7]; 250 g ai/ha", "result": 100}, {"measurement": "Pre-emerge herbicidal activity, phytotoxicity rating CASOB", "setting": "[8]; 63 g ai/ha", "result": 0}, {"measurement": "Pre-emerge herbicidal activity, phytotoxicity rating CASOB", "setting": "[8]; 250 g ai/ha", "result": 30}, {"measurement": "Pre-emerge herbicidal activity, phytotoxicity rating ABUTH", "setting": "[9]; 63 g ai/ha", "result": 10}, {"measurement": "Pre-emerge herbicidal activity, phytotoxicity rating ABUTH", "setting": "[9]; 250 g ai/ha", "result": 50}, {"measurement": "Pre-emerge phytotoxicity rating, crop damage CORN", "setting": "[10]; 63 g ai/ha", "result": 0}, {"measurement": "Pre-emerge phytotoxicity rating, crop damage CORN", "setting": "[10]; 250 g ai/ha", "result": 0}, {"measurement": "Pre-emerge phytotoxicity rating, crop damage RICE", "setting": "[11]; 63 g ai/ha", "result": 0}, {"measurement": "Pre-emerge phytotoxicity rating, crop damage RICE", "setting": "[11]; 250 g ai/ha", "result": 10}, {"measurement": "Post-emerge Herbicidal Activity, phytotoxicity rating ECHCG", "setting": "[12]; Rate 63 g ai/ha", "result": 100}, {"measurement": "Post-emerge Herbicidal Activity, phytotoxicity rating ECHCG", "setting": "[12]; Rate 250 g ai/ha", "result": 100}, {"measurement": "Post-emerge Herbicidal Activity, phytotoxicity rating AMBEL", "setting": "[13]; Rate 63 g ai/ha", "result": 40}, {"measurement": "Post-emerge Herbicidal Activity, phytotoxicity rating AMBEL", "setting": "[13]; Rate 250 g ai/ha", "result": 40}, {"measurement": "Post-emerge Herbicidal Activity, phytotoxicity rating SETVI", "setting": "[14]; Rate 63 g ai/ha", "result": 40}, {"measurement": "Post-emerge Herbicidal Activity, phytotoxicity rating SETVI", "setting": "[14]; Rate 250 g ai/ha", "result": 70}, {"measurement": "Post-emerge Herbicidal Activity, phytotoxicity rating IPOHE", "setting": "[15]; Rate 63 g ai/ha", "result": 0}, {"measurement": "Post-emerge Herbicidal Activity, phytotoxicity rating IPOHE", "setting": "[15]; Rate 250 g ai/ha", "result": 20}, {"measurement": "Post-emerge Herbicidal Activity, phytotoxicity rating SORHA", "setting": "[16]; Rate 63 g ai/ha", "result": 0}, {"measurement": "Post-emerge Herbicidal Activity, phytotoxicity rating SORHA", "setting": "[16]; Rate 250 g ai/ha", "result": 10}, {"measurement": "Post-emerge Herbicidal Activity, phytotoxicity rating CHEAL", "setting": "[17]; Rate 63 g ai/ha", "result": 0}, {"measurement": "Post-emerge Herbicidal Activity, phytotoxicity rating CHEAL", "setting": "[17]; Rate 250 g ai/ha", "result": 80}, {"measurement": "Post-emerge Herbicidal Activity, phytotoxicity rating DIGSA", "setting": "[18]; Rate 63 g ai/ha", "result": 70}, {"measurement": "Post-emerge Herbicidal Activity, phytotoxicity rating DIGSA", "setting": "[18]; Rate 250 g ai/ha", "result": 90}, {"measurement": "Post-emerge Herbicidal Activity, phytotoxicity rating AMARE", "setting": "[19]; Rate 63 g ai/ha", "result": 95}, {"measurement": "Post-emerge Herbicidal Activity, phytotoxicity rating AMARE", "setting": "[19]; Rate 250 g ai/ha", "result": 100}, {"measurement": "Post-emerge Herbicidal Activity, phytotoxicity rating CASOB", "setting": "[20]; Rate 63 g ai/ha", "result": 20}, {"measurement": "Post-emerge Herbicidal Activity, phytotoxicity rating CASOB", "setting": "[20]; Rate 250 g ai/ha", "result": 40}, {"measurement": "Post-emerge Herbicidal Activity, phytotoxicity rating ABUTH", "setting": "[21]; Rate 63 g ai/ha", "result": 90}, {"measurement": "Post-emerge Herbicidal Activity, phytotoxicity rating ABUTH", "setting": "[21]; Rate 250 g ai/ha", "result": 95}, {"measurement": "Post-emerge phytotoxicity rating CORN (crop damage)", "setting": "[22]; Rate 63 g ai/ha", "result": 0}, {"measurement": "Post-emerge phytotoxicity rating CORN (crop damage)", "setting": "[22]; Rate 250 g ai/ha", "result": 0}, {"measurement": "Post-emerge phytotoxicity rating RICE (crop damage)", "setting": "[23]; Rate 63 g ai/ha", "result": 0}, {"measurement": "Post-emerge phytotoxicity rating RICE (crop damage)", "setting": "[23]; Rate 250 g ai/ha", "result": 0}]}]}
